Results reported in US7871982B2, “Lincomycin derivatives and antimicrobial agents comprising the same as active ingredient” (Meiji Seika Kaisha, Ltd., priority 2005, dated 2011).
Values after ≈ are worked out from the molar mass of the structure shown.

Tests used:
Assay in all cases: Antimicrobial activity, MIC against pneumococci (agar dilution)
Format in all cases: cell-based
[1] = test system: S. pneumoniae 1913; conditions: sensitivity disk agar-N+5% horse blood, inoculum 10^6 CFU/ml; for MIC: Streptococcus pneumoniae, read-out: minimal inhibitory concentration (MIC)
Procedure: (§1) For representative compounds among lincomycin derivatives according to the present invention, the minimal inhibitory concentration (MIC, μg/ml) against various pneumococci was measured according to the method described in CHEMOTHERAPY, vol. 16, No. 1, 99, 1968. Sensitivity disk agar-N+5% horse blood was used as the medium for the measurement. The amount of bacteria inoculated was 10^6 CFU/ml.

[2] = test system: S. pneumoniae PRC0-91; conditions: inoculum 10^6 CFU/ml; for minimal inhibitory concentration (MIC): sensitivity disk agar-N+5% horse blood
Procedure: as §1

[3] = test system: S. pneumoniae DPI Type[…]; conditions: for minimal inhibitory concentration (MIC): S. pneumoniae DPI Type[…], sensitivity disk agar-N+5% horse blood, inoculum 10^6 CFU/ml; for MIC: Streptococcus pneumoniae, read-out: minimal inhibitory concentration (MIC)
Procedure: as §1

[4] = test system: S. pneumoniae PRC-53; conditions: inoculum 10^6 CFU/ml; for minimal inhibitory concentration (MIC): sensitivity disk agar-N+5% horse blood; for MIC: Streptococcus pneumoniae, PRC53, sensitivity disk agar-N+5% horse blood, read-out: minimal inhibitory concentration (MIC)
Procedure: as §1

[5] = test system: S. pneumoniae TH-96; conditions: inoculum 10^6 CFU/ml; for minimal inhibitory concentration (MIC): sensitivity disk agar-N+5% horse blood; for MIC: Streptococcus pneumoniae, TH96, sensitivity disk agar-N+5% horse blood, read-out: minimal inhibitory concentration (MIC)
Procedure: as §1

[6] = test system: S. pneumoniae 225; conditions: sensitivity disk agar-N+5% horse blood, inoculum 10^6 CFU/ml; for MIC: Streptococcus pneumoniae, read-out: minimal inhibitory concentration (MIC)
Procedure: as §1

[7] = test system: S. pneumoniae IP692; conditions: sensitivity disk agar-N+5% horse blood, inoculum 10^6 CFU/ml; for MIC: Streptococcus pneumoniae, read-out: minimal inhibitory concentration (MIC)
Procedure: as §1

[8] = test system: S. pneumoniae 1820; conditions: sensitivity disk agar-N+5% horse blood, inoculum 10^6 CFU/ml; for MIC: Streptococcus pneumoniae, read-out: minimal inhibitory concentration (MIC)
Procedure: as §1

[9] = test system: S. pneumoniae TH-662; conditions: inoculum 10^6 CFU/ml; for minimal inhibitory concentration (MIC): sensitivity disk agar-N+5% horse blood; for MIC: Streptococcus pneumoniae, TH662, sensitivity disk agar-N+5% horse blood, read-out: minimal inhibitory concentration (MIC)
Procedure: as §1

[10] = test system: S. pneumoniae PRC-206; conditions: inoculum 10^6 CFU/ml; for minimal inhibitory concentration (MIC): sensitivity disk agar-N+5% horse blood; for MIC: Streptococcus pneumoniae, PRC206, sensitivity disk agar-N+5% horse blood, read-out: minimal inhibitory concentration (MIC)
Procedure: as §1

| Compound | minimal inhibitory concentration (MIC) [1] | minimal inhibitory concentration (MIC) [2] | minimal inhibitory concentration (MIC) [3] | minimal inhibitory concentration (MIC) [4] | minimal inhibitory concentration (MIC) [5] | minimal inhibitory concentration (MIC) [6] | minimal inhibitory concentration (MIC) [7] | minimal inhibitory concentration (MIC) [8] | minimal inhibitory concentration (MIC) [9] | minimal inhibitory concentration (MIC) [10] | MIC [1] | MIC [3] | MIC [4] | MIC [5] | MIC [6] | MIC [7] | MIC [8] | MIC [9] | MIC [10] | MIC ([2]; Streptococcus pneumoniae, PRC091, sensitivity disk agar-N+5% horse blood, read-out: minimal inhibitory concentration (MIC)) |
| --- | --- | --- | --- | --- | --- | --- | --- | --- | --- | --- | --- | --- | --- | --- | --- | --- | --- | --- | --- | --- |
| CCCC1CC(C(=O)NC(C(C)Sc2ccc(N(C)C(=O)COC)cc2)C2OC(SC)C(O)C(O)C2O)N(C)C1 (stereo not drawn) [Compound 170, 7-Deoxy-7-epi-7-(4-(methoxy-N-methylacetamido)phenylthio)-lincomycin] | 0.13 µg/mL (≈ 0.217 µM) | 8 µg/mL (≈ 13.3 µM) | 0.13 µg/mL (≈ 0.217 µM) | 0.13 µg/mL (≈ 0.217 µM) | 0.13 µg/mL (≈ 0.217 µM) | 128 µg/mL (≈ 213 µM) | 0.13 µg/mL (≈ 0.217 µM) | 8 µg/mL (≈ 13.3 µM) | 8 µg/mL (≈ 13.3 µM) | 16 µg/mL (≈ 26.7 µM) |  |  |  |  |  |  |  |  |  |  |
| CCC[C@@H]1C[C@@H](C(=O)N[C@@H]([C@H]2O[C@H](SC)[C@H](O)[C@@H](O)[C@H]2O)[C@H](C)Sc2ccc(NC(=O)CC)cn2)N(C)C1 [Compound 191, 7-Deoxy-7-epi-7-(5-(propionamido)pyridin-2-ylthio)-lincomycin] | 0.015 µg/mL (≈ 0.0263 µM) | 2 µg/mL (≈ 3.5 µM) | 0.015 µg/mL (≈ 0.0263 µM) | 0.03 µg/mL (≈ 0.0526 µM) | 0.03 µg/mL (≈ 0.0526 µM) | 32 µg/mL (≈ 56.1 µM) | 0.015 µg/mL (≈ 0.0263 µM) | 4 µg/mL (≈ 7.01 µM) |  | 8 µg/mL (≈ 14 µM) |  |  |  |  |  |  |  |  |  |  |
| CCCC1CC(C(=O)NC(C(C)Sc2nnc(NC(=O)COC)s2)C2OC(SC)C(O)C(O)C2O)N(C)C1 (stereo not drawn) [Compound 195, 7-Deoxy-7-epi-7-(5-(2-methoxyacetamido)-1,3,4-thiadiazol-2-ylthio)lincomycin] | 0.13 µg/mL (≈ 0.219 µM) | 8 µg/mL (≈ 13.5 µM) | 0.06 µg/mL (≈ 0.101 µM) | 0.06 µg/mL (≈ 0.101 µM) | 0.06 µg/mL (≈ 0.101 µM) | 64 µg/mL (≈ 108 µM) | 0.03 µg/mL (≈ 0.0505 µM) | 16 µg/mL (≈ 26.9 µM) | 8 µg/mL (≈ 13.5 µM) | 64 µg/mL (≈ 108 µM) |  |  |  |  |  |  |  |  |  |  |
| CCC[C@@H]1C[C@@H](C(=O)N[C@@H]([C@H]2O[C@H](SC)[C@H](O)[C@@H](O)[C@H]2O)[C@H](C)Sc2ccc(C(=O)N3CCCC3)cc2)N(C)C1 [Compound 228, 7-Deoxy-7-epi-7-(4-(pyrrolidino-carbonyl)phenylthio)lincomycin] | 0.13 µg/mL (≈ 0.218 µM) | 2 µg/mL (≈ 3.36 µM) | 0.13 µg/mL (≈ 0.218 µM) | 0.06 µg/mL (≈ 0.101 µM) |  | 16 µg/mL (≈ 26.9 µM) | 0.06 µg/mL (≈ 0.101 µM) | 4 µg/mL (≈ 6.71 µM) | 2 µg/mL (≈ 3.36 µM) | 4 µg/mL (≈ 6.71 µM) |  |  |  |  |  |  |  |  |  |  |
| CCC[C@@H]1C[C@@H](C(=O)N[C@@H](C2OC(SC)C(O)C(O)C2O)[C@H](C)SCc2ccc(C(=O)N3CCCCC3)cc2)N(C)C1 (stereo partly drawn) [Compound 235, 7-Deoxy-7-epi-7-(4-(piperidino-carbonyl)benzylthio)lincomycin] |  |  |  |  |  |  |  |  |  |  | 0.03 µg/mL (≈ 0.0481 µM) | 0.015 µg/mL (≈ 0.024 µM) | 0.03 µg/mL (≈ 0.0481 µM) | 0.03 µg/mL (≈ 0.0481 µM) | 32 µg/mL (≈ 51.3 µM) | 0.015 µg/mL (≈ 0.024 µM) | 8 µg/mL (≈ 12.8 µM) | 1 µg/mL (≈ 1.6 µM) | 4 µg/mL (≈ 6.41 µM) |  |
| CCC[C@H]1CN[C@H](C(=O)N[C@@H]([C@H]2O[C@H](SC)[C@H](O)[C@@H](O)[C@H]2O)[C@H](C)Sc2nnc(-c3sccc3N)s2)C1 [Compound 304, 7-(5-(3-Aminothiophen-2-yl)-1,3,4-thiadiazol-2-ylthio)-1′-demethyl-7-deoxy-7-epilincomycin] | 0.13 µg/mL (≈ 0.22 µM) | 2 µg/mL (≈ 3.39 µM) | 0.13 µg/mL (≈ 0.22 µM) | 0.13 µg/mL (≈ 0.22 µM) | 0.13 µg/mL (≈ 0.22 µM) | 16 µg/mL (≈ 27.1 µM) | 0.13 µg/mL (≈ 0.22 µM) | 4 µg/mL (≈ 6.78 µM) | 2 µg/mL (≈ 3.39 µM) | 4 µg/mL (≈ 6.78 µM) |  |  |  |  |  |  |  |  |  |  |
| CCC[C@@H]1CCN[C@H](C(=O)N[C@@H]([C@H]2O[C@H](SC)[C@H](O)[C@@H](O)[C@H]2O)[C@H](C)Sc2ncc(C(=O)OCC)c(N)n2)C1 [Compound 364, Methyl 7-(4-amino-5-ethoxycarbonylpyrimidin-2-ylthio)-7-deoxy-7-epi-6-N-((2S,4R)-4-propyl)pipecoloyl-1-thio-α-lincosamide] | 0.13 µg/mL (≈ 0.221 µM) |  | 0.13 µg/mL (≈ 0.221 µM) | 0.03 µg/mL (≈ 0.051 µM) | 0.06 µg/mL (≈ 0.102 µM) | 4 µg/mL (≈ 6.81 µM) | 0.13 µg/mL (≈ 0.221 µM) | 4 µg/mL (≈ 6.81 µM) | 2 µg/mL (≈ 3.4 µM) | 4 µg/mL (≈ 6.81 µM) |  |  |  |  |  |  |  |  |  |  |
| CC[C@@H]1CCN(C)[C@H](C(=O)N[C@@H]([C@H]2O[C@H](SC)[C@H](O)[C@@H](O)[C@H]2O)[C@H](C)Sc2nnc(-c3ccc(F)cc3[N+](=O)[O-])s2)C1 [Compound 396, Methyl 7-deoxy-7-epi-7-(5-(4-fluoro-2-nitrophenyl)-1,3,4-thiadiazol-2-ylthio)-6-N-((2S,4R)-1-N-methyl-4-ethyl)pipecoloyl-1-thio-α-lincosamide] | 0.008 µg/mL (≈ 0.0124 µM) | 4 µg/mL (≈ 6.19 µM) | 0.015 µg/mL (≈ 0.0232 µM) | 0.015 µg/mL (≈ 0.0232 µM) | 0.015 µg/mL (≈ 0.0232 µM) | >128 µg/mL | 0.008 µg/mL (≈ 0.0124 µM) | 16 µg/mL (≈ 24.8 µM) | 8 µg/mL (≈ 12.4 µM) | 64 µg/mL (≈ 99.1 µM) |  |  |  |  |  |  |  |  |  |  |
| CCC[C@@H]1C[C@@H](C(=O)N[C@H](C2OC(SC)C(O)C(O)C2O)[C@@H](C)Sc2ccc(-c3cccnc3[N+](=O)[O-])cc2)N(C)C1 (stereo partly drawn) [Compound 446, 7-Deoxy-7-epi-7-(4-(2-nitropyridin-3-yl)phenylthio)-lincomycin] |  |  |  |  |  |  |  |  |  |  | 0.03 µg/mL (≈ 0.0483 µM) | 0.03 µg/mL (≈ 0.0483 µM) | 0.015 µg/mL (≈ 0.0242 µM) | 0.015 µg/mL (≈ 0.0242 µM) | 64 µg/mL (≈ 103 µM) | 0.03 µg/mL (≈ 0.0483 µM) | 4 µg/mL (≈ 6.44 µM) | 2 µg/mL (≈ 3.22 µM) | 8 µg/mL (≈ 12.9 µM) | 4 µg/mL (≈ 6.44 µM) |
